Values after ≈ are worked out from the molar mass of the structure shown.
test system: Talaromyces funiculosus; test: Fungicidal activity against Penicillium funiculosum ATCC 36839 incubated for 72 hrs followed by serial sub-cultivation for 72 hrs and measured after 72 hrs by serial dilution method; assay type: functional; details: not given

| SMILES | MFC99.5 |
| --- | --- |
| O=C(Cc1nsc2ccccc12)NN1C(=O)CSC1c1ccccc1 (configuration not stated) | 21.6 ×10⁻² umol/ml |

test system: Trichoderma viride; test: Fungicidal activity against Trichoderma viride IAM 5061 incubated for 72 hrs followed by serial sub-cultivation for 72 hrs and measured after 72 hrs by serial dilution method; assay type: functional; details: not given

| SMILES | MFC99.5 |
| --- | --- |
| O=C(Cc1nsc2ccccc12)NN1C(=O)CSC1c1ccccc1 (configuration not stated) | 10.8 ×10⁻² umol/ml |

test system: Staphylococcus aureus; test: Antibacterial activity against Staphylococcus aureus ATCC 6538 after 24 hrs by microdilution method; assay type: functional; details: ATCC 6538, 24 h

| MIC | SMILES |
| --- | --- |
| 216 µM (≈ 79.8 µg/mL) | O=C(Cc1nsc2ccccc12)NN1C(=O)CSC1c1ccccc1 (configuration not stated) |

test system: Salmonella typhimurium; test: Antibacterial activity against Salmonella typhimurium ATCC 13311 after 24 hrs by microdilution method; assay type: functional, Salmonella enterica subsp. enterica serovar Typhimurium; details: Salmonella enterica, ATCC 13311, 24 h

| MIC | SMILES |
| --- | --- |
| 216 µM (≈ 79.8 µg/mL) | O=C(Cc1nsc2ccccc12)NN1C(=O)CSC1c1ccccc1 (configuration not stated) |

test system: Micrococcus flavus; test: Antibacterial activity against Micrococcus flavus ATCC 10240 after 24 hrs by microdilution method; assay type: functional; details: ATCC 10240, 24 h

| MIC | SMILES |
| --- | --- |
| 297 µM (≈ 110 µg/mL) | O=C(Cc1nsc2ccccc12)NN1C(=O)CSC1c1ccccc1 (configuration not stated) |

test system: Enterobacter cloacae; test: Bactericidal activity against Enterobacter cloacae incubated for 24 hrs followed by serial sub-cultivation and measured after 24 hrs by microdilution method; assay type: functional; details: not given

| SMILES | MBC99.5 |
| --- | --- |
| O=C(Cc1nsc2ccccc12)NN1C(=O)CSC1c1ccccc1 (configuration not stated) | 21.4 ×10⁻² umol/ml |

test system: Aspergillus versicolor; test: Antifungal activity against Aspergillus versicolor ATCC 11730 after 72 hrs by serial dilution method; assay type: functional; details: ATCC 11730, 72 h

| MIC | SMILES |
| --- | --- |
| 216 µM (≈ 79.8 µg/mL) | O=C(Cc1nsc2ccccc12)NN1C(=O)CSC1c1ccccc1 (configuration not stated) |

test system: Pseudomonas aeruginosa; test: Antibacterial activity against Pseudomonas aeruginosa ATCC 27853 after 24 hrs by microdilution method; assay type: functional; details: ATCC 27853, 24 h

| MIC | SMILES |
| --- | --- |
| 216 µM (≈ 79.8 µg/mL) | O=C(Cc1nsc2ccccc12)NN1C(=O)CSC1c1ccccc1 (configuration not stated) |

test system: Aspergillus ochraceus; test: Fungicidal activity against Aspergillus ochraceus ATCC 12066 incubated for 72 hrs followed by serial sub-cultivation for 72 hrs and measured after 72 hrs by serial dilution method; assay type: functional; details: not given

| SMILES | MFC99.5 |
| --- | --- |
| O=C(Cc1nsc2ccccc12)NN1C(=O)CSC1c1ccccc1 (configuration not stated) | 10.8 ×10⁻² umol/ml |

test system: Staphylococcus aureus; test: Bactericidal activity against Staphylococcus aureus ATCC 6538 incubated for 24 hrs followed by serial sub-cultivation and measured after 24 hrs by microdilution method; assay type: functional; details: not given

| SMILES | MBC99.5 |
| --- | --- |
| O=C(Cc1nsc2ccccc12)NN1C(=O)CSC1c1ccccc1 (configuration not stated) | 40.5 ×10⁻² umol/ml |

test system: Aspergillus fumigatus; test: Antifungal activity against Aspergillus fumigatus after 72 hrs by serial dilution method; assay type: functional; details: not given

| MIC | SMILES |
| --- | --- |
| 108 µM (≈ 39.9 µg/mL) | O=C(Cc1nsc2ccccc12)NN1C(=O)CSC1c1ccccc1 (configuration not stated) |

test system: Escherichia coli; test: Antibacterial activity against Escherichia coli ATCC 35210 after 24 hrs by microdilution method; assay type: functional; details: ATCC 35210, 24 h

| MIC | SMILES |
| --- | --- |
| 216 µM (≈ 79.8 µg/mL) | O=C(Cc1nsc2ccccc12)NN1C(=O)CSC1c1ccccc1 (configuration not stated) |

test system: Listeria monocytogenes; test: Bactericidal activity against Listeria monocytogenes NCTC 7973 incubated for 24 hrs followed by serial sub-cultivation and measured after 24 hrs by microdilution method; assay type: functional; details: not given

| SMILES | MBC99.5 |
| --- | --- |
| O=C(Cc1nsc2ccccc12)NN1C(=O)CSC1c1ccccc1 (configuration not stated) | 40.5 ×10⁻² umol/ml |

test system: Penicillium ochrochloron; test: Antifungal activity against Penicillium ochrochloron ATCC 9112 after 72 hrs by serial dilution method; assay type: functional; details: ATCC 9112, 72 h

| MIC | SMILES |
| --- | --- |
| 162 µM (≈ 59.9 µg/mL) | O=C(Cc1nsc2ccccc12)NN1C(=O)CSC1c1ccccc1 (configuration not stated) |

test system: Candida albicans; test: Fungicidal activity against Candida albicans incubated for 72 hrs followed by serial sub-cultivation for 72 hrs and measured after 72 hrs by serial dilution method; assay type: functional; details: not given

| SMILES | MFC99.5 |
| --- | --- |
| O=C(Cc1nsc2ccccc12)NN1C(=O)CSC1c1ccccc1 (configuration not stated) | 40.5 ×10⁻² umol/ml |

test system: Aspergillus ochraceus; test: Antifungal activity against Aspergillus ochraceus ATCC 12066 after 72 hrs by serial dilution method; assay type: functional; details: ATCC 12066, 72 h

| MIC | SMILES |
| --- | --- |
| 54 µM (≈ 20 µg/mL) | O=C(Cc1nsc2ccccc12)NN1C(=O)CSC1c1ccccc1 (configuration not stated) |

test system: Talaromyces funiculosus; test: Antifungal activity against Penicillium funiculosum ATCC 36839 after 72 hrs by serial dilution method; assay type: functional; details: ATCC 36839, 72 h

| MIC | SMILES |
| --- | --- |
| 216 µM (≈ 79.8 µg/mL) | O=C(Cc1nsc2ccccc12)NN1C(=O)CSC1c1ccccc1 (configuration not stated) |

test system: Bacillus cereus; test: Bactericidal activity against Bacillus cereus incubated for 24 hrs followed by serial sub-cultivation and measured after 24 hrs by microdilution method; assay type: functional; details: not given

| SMILES | MBC99.5 |
| --- | --- |
| O=C(Cc1nsc2ccccc12)NN1C(=O)CSC1c1ccccc1 (configuration not stated) | 40.5 ×10⁻² umol/ml |

test system: Salmonella typhimurium; test: Bactericidal activity against Salmonella typhimurium ATCC 13311 incubated for 24 hrs followed by serial sub-cultivation and measured after 24 hrs by microdilution method; assay type: functional, Salmonella enterica subsp. enterica serovar Typhimurium; details: not given

| SMILES | MBC99.5 |
| --- | --- |
| O=C(Cc1nsc2ccccc12)NN1C(=O)CSC1c1ccccc1 (configuration not stated) | 40.5 ×10⁻² umol/ml |

test system: Listeria monocytogenes; test: Antibacterial activity against Listeria monocytogenes NCTC 7973 after 24 hrs by microdilution method; assay type: functional; details: NCTC 7973, 24 h

| MIC | SMILES |
| --- | --- |
| 216 µM (≈ 79.8 µg/mL) | O=C(Cc1nsc2ccccc12)NN1C(=O)CSC1c1ccccc1 (configuration not stated) |

test system: Trichoderma viride; test: Antifungal activity against Trichoderma viride IAM 5061 after 72 hrs by serial dilution method; assay type: functional; details: IAM 5061, 72 h

| MIC | SMILES |
| --- | --- |
| 54 µM (≈ 20 µg/mL) | O=C(Cc1nsc2ccccc12)NN1C(=O)CSC1c1ccccc1 (configuration not stated) |

test system: Candida albicans; test: Antifungal activity against Candida albicans after 72 hrs by serial dilution method; assay type: functional; details: not given

| MIC | SMILES |
| --- | --- |
| 216 µM (≈ 79.8 µg/mL) | O=C(Cc1nsc2ccccc12)NN1C(=O)CSC1c1ccccc1 (configuration not stated) |

test system: Escherichia coli; test: Bactericidal activity against Escherichia coli ATCC 35210 incubated for 24 hrs followed by serial sub-cultivation and measured after 24 hrs by microdilution method; assay type: functional; details: not given

| SMILES | MBC99.5 |
| --- | --- |
| O=C(Cc1nsc2ccccc12)NN1C(=O)CSC1c1ccccc1 (configuration not stated) | 40.5 ×10⁻² umol/ml |

test system: Bacillus cereus; test: Antibacterial activity against Bacillus cereus after 24 hrs by microdilution method; assay type: functional; details: not given

| MIC | SMILES |
| --- | --- |
| 216 µM (≈ 79.8 µg/mL) | O=C(Cc1nsc2ccccc12)NN1C(=O)CSC1c1ccccc1 (configuration not stated) |

test system: Penicillium ochrochloron; test: Fungicidal activity against Penicillium ochrochloron ATCC 9112 incubated for 72 hrs followed by serial sub-cultivation for 72 hrs and measured after 72 hrs by serial dilution method; assay type: functional; details: not given

| SMILES | MFC99.5 |
| --- | --- |
| O=C(Cc1nsc2ccccc12)NN1C(=O)CSC1c1ccccc1 (configuration not stated) | 21.6 ×10⁻² umol/ml |

test system: Enterobacter cloacae; test: Antibacterial activity against Enterobacter cloacae after 24 hrs by microdilution method; assay type: functional; details: not given

| MIC | SMILES |
| --- | --- |
| 108 µM (≈ 39.9 µg/mL) | O=C(Cc1nsc2ccccc12)NN1C(=O)CSC1c1ccccc1 (configuration not stated) |

test system: Pseudomonas aeruginosa; test: Bactericidal activity against Pseudomonas aeruginosa ATCC 27853 incubated for 24 hrs followed by serial sub-cultivation and measured after 24 hrs by microdilution method; assay type: functional; details: not given

| SMILES | MBC99.5 |
| --- | --- |
| O=C(Cc1nsc2ccccc12)NN1C(=O)CSC1c1ccccc1 (configuration not stated) | 40.5 ×10⁻² umol/ml |

test system: Aspergillus fumigatus; test: Fungicidal activity against Aspergillus fumigatus incubated for 72 hrs followed by serial sub-cultivation for 72 hrs and measured after 72 hrs by serial dilution method; assay type: functional; details: not given

| SMILES | MFC99.5 |
| --- | --- |
| O=C(Cc1nsc2ccccc12)NN1C(=O)CSC1c1ccccc1 (configuration not stated) | 40.5 ×10⁻² umol/ml |

test system: Micrococcus flavus; test: Bactericidal activity against Micrococcus flavus ATCC 10240 incubated for 24 hrs followed by serial sub-cultivation and measured after 24 hrs by microdilution method; assay type: functional; details: not given

| SMILES | MBC99.5 |
| --- | --- |
| O=C(Cc1nsc2ccccc12)NN1C(=O)CSC1c1ccccc1 (configuration not stated) | 40.5 ×10⁻² umol/ml |

test system: Aspergillus versicolor; test: Fungicidal activity against Aspergillus versicolor ATCC 11730 incubated for 72 hrs followed by serial sub-cultivation for 72 hrs and measured after 72 hrs by serial dilution method; assay type: functional; details: not given

| SMILES | MFC99.5 |
| --- | --- |
| O=C(Cc1nsc2ccccc12)NN1C(=O)CSC1c1ccccc1 (configuration not stated) | 40.5 ×10⁻² umol/ml |

test system: Aspergillus niger; test: Antifungal activity against Aspergillus niger ATCC 6275 after 72 hrs by serial dilution method; assay type: functional; details: ATCC 6275, 72 h

| MIC | SMILES |
| --- | --- |
| 162 µM (≈ 59.9 µg/mL) | O=C(Cc1nsc2ccccc12)NN1C(=O)CSC1c1ccccc1 (configuration not stated) |

test system: Aspergillus niger; test: Fungicidal activity against Aspergillus niger ATCC 6275 incubated for 72 hrs followed by serial sub-cultivation for 72 hrs and measured after 72 hrs by serial dilution method; assay type: functional; details: not given

| SMILES | MFC99.5 |
| --- | --- |
| O=C(Cc1nsc2ccccc12)NN1C(=O)CSC1c1ccccc1 (configuration not stated) | 21.6 ×10⁻² umol/ml |

From ChEMBL document CHEMBL4257449, “New N-(2-phenyl-4-oxo-1,3-thiazolidin-3-yl)-1,2-benzothiazole-3-carboxamides and acetamides as antimicrobial agents” (2017)
